Series [1] addresses Glutamate [NMDA] receptor. The experiment in a line: Binding affinity to NMDAR (unknown origin) assessed as inhibition constant by [3H]MK-801 binding assay. In kind it is protein-complex assay, Homo sapiens.
For series [2], the target named is T1, Protein deacetylase HDAC6 (Homo sapiens, UniProt Q9UBN7).
T1 sequence (Q9UBN7 whole entry): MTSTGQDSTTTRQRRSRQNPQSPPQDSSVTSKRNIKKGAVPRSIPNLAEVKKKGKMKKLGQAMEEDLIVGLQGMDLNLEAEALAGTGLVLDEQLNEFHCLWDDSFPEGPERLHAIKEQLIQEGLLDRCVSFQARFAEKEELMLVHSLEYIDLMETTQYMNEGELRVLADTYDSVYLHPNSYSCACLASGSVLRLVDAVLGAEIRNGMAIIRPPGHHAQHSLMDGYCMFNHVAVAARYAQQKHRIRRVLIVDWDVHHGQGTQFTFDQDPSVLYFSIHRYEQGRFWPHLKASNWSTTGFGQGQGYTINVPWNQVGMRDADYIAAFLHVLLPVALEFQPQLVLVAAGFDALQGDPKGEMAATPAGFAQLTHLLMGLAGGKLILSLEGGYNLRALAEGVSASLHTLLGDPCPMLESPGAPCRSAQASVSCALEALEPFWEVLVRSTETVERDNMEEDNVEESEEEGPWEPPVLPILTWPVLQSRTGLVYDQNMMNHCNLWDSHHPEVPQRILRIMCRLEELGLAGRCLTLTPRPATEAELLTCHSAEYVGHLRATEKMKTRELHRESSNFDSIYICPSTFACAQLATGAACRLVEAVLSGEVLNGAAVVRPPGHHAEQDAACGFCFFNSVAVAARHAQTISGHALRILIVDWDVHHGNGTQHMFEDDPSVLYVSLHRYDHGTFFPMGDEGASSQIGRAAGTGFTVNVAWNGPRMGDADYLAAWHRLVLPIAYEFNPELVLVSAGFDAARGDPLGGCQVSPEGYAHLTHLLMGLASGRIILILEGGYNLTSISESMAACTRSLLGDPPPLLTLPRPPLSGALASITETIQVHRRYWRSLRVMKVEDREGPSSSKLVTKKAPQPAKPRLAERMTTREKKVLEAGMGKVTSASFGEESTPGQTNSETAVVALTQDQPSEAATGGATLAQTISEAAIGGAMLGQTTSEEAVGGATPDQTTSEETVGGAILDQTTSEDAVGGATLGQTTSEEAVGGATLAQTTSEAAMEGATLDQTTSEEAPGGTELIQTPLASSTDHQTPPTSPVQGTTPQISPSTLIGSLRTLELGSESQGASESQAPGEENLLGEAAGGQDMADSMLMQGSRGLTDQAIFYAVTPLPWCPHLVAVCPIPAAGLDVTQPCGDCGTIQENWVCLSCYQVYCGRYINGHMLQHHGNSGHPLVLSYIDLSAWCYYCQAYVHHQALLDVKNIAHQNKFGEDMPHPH
Put plainly: Inhibition of HDAC6 in human HeLa cells measured after 2 hrs by Western blot analysis. The series is classed as cell-based. On the technique in general: A western blot detects proteins with antibodies after separation by electrophoresis.

The nature of series [3]: Half life in mouse plasma measured for 5 to 60 mins by HPLC/MS/MS analysis. The series is classed as ADME, cell-free. Particulars: time 5-60 min.
The next series is described as follows: in vivo. Particulars: mouse, brain and plasma.
The target in series [4] is T1, Protein deacetylase HDAC6. Put plainly: Inhibition of HDAC6 (unknown origin) by microtiter plate reader analysis.
For series [5], the target named is T1, Protein deacetylase HDAC6. The experiment in a line: Inhibition of HDAC6 in human SH-SY5Y cells measured after 2 hrs by Western blot analysis. In kind it is cell-based.
Series [6] concerns the target High affinity cGMP-specific 3',5'-cyclic phosphodiesterase 9A (Homo sapiens, UniProt O76083). Put plainly: Inhibition of PDE9 in human SH-SY5Y cells measured after 2 hrs by Western blot analysis. The series is classed as cell-based.

SMILES strings stand for the structures.

Sequence of High affinity cGMP-specific 3',5'-cyclic phosphodiesterase 9A (O76083 whole entry): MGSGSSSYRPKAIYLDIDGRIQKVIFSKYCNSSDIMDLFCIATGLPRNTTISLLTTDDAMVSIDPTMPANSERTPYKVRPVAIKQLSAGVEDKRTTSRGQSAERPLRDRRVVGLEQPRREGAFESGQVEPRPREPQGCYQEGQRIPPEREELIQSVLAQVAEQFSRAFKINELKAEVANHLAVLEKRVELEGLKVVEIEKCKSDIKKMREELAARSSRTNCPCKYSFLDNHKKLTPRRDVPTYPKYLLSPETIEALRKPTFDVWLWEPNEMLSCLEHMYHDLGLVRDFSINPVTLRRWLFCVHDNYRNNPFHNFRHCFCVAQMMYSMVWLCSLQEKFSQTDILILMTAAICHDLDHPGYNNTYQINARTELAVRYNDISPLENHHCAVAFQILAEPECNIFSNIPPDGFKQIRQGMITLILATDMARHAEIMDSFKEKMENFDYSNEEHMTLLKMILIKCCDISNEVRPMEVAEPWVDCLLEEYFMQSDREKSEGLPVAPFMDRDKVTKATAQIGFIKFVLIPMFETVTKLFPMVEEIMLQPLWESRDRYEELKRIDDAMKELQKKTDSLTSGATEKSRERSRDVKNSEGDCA

As to `CC12CC3CC(C)(C1)CC(NC(=O)/C=C/c1ccc(C(=O)NO)cc1)(C3)C2`, the Ki (usually the equilibrium dissociation constant of an inhibitor or competing ligand from its target) in series [1] worked out at 590 nM. In addition, in series [2], the IC50 (usually the concentration that inhibits the measured activity by half) turned out to be 180 nM.
As to `O=C(NO)c1cnc(NC2(c3cccc(F)c3)CCCCC2)nc1`, the half-life (as a rule, how long it takes for the measured level to halve) in series [3] is 30 min. Also, in the series “in vivo”, the Kp – broadly, tissue or fluid exposure divided by exposure in the circulation – was 1.26.
On to `CCN(CC)c1ccc(C(=O)NCCCCCCC(=O)NO)cc1`, for which the IC50 in series [4] amounted to 0.0095 nM.
In turn, `CN1CCc2c(c3ccccc3n2Cc2ccc(C(=O)NO)cc2)C1` [TUBASTATIN A] registered a Kp in the series “in vivo” of 1.22.
Regarding `C[C@@H]1CN(Cc2ccc(C(=O)NO)cc2)C[C@H]1c1nc2c(cnn2C2CCCC2)c(=O)[nH]1`, the IC50 was determined as 107 nM in series [5] and 40 nM in series [6].
Turning to `O=C(NO)c1cnc(NC2(c3ccccc3)CC2)nc1`, the half-life in series [3] was 12 min.

(Values after ChEMBL document CHEMBL5150006, “Inhibition of Histone Deacetylase 6 (HDAC6) as a therapeutic strategy for Alzheimer's disease: A review (2010-2020)” (Eur J Med Chem, 2021).)
